Results as given in patent US20240400515A1, “NPM1-DEPENDING LEUKEMIA AGENTS” (UNIVERSIDAD COMPLUTENSE DE MADRID, priority 2021, published 2024).
“Also recorded” adds a separate entry of the source.

Columns and labels:
[1] = molecular target: T1, NPM1 cytoplasmic form (NPM1 C+) (Homo sapiens, UniProt P06748); assay: Effect on NPM1 cytoplasmic form (NPM1 C+) by confocal microscopy in OCI-AML3; assay type: cell-based; settings: OCI-AML3, 10 µM, 48 h, FIG. 4
T1 construct: endogenous in cells; host or cells: OCI-AML3 (DSMZ)
T1 sequence (P06748 with tags, fused parts or gaps limits assumed): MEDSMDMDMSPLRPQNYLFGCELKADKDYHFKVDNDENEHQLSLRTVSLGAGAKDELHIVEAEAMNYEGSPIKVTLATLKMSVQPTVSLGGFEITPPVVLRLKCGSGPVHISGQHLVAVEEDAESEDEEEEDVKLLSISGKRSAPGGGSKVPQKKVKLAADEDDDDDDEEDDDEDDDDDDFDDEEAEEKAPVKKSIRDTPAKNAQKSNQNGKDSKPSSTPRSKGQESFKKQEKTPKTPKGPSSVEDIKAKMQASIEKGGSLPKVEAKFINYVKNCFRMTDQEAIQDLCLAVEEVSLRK
Protocol: OCI-AML3 (NPM1 C+) cells were plated onto glass coverslips or Greiner Bio-One μClear black 96-well plate (7.5×10^4 cells per well) and treated with test compound for 48 h. Then, cells were fixed with 4% paraformaldehyde for 15 min, permeabilized with 0.1% Triton X-100 for 30 min, and blocked in 5% bovine serum albumin during 1 h at rt. Incubation with primary antibodies against NPM1 (7H10B9, NOVUS Biologicals) was carried out overnight at 4° C. Alexa-488 conjugated anti-mouse or anti-rabbit antibodies (Molecular Probes) were used for detection of the reported proteins by confocal microscopy. Nuclei were counterstained with 4′,6-diamidino-2-phenylindole (DAPI) bath. A total of 35 fields per well were acquired with a ×40 magnification lens for those samples run in the Opera HCS system (Perkin Elmer). Images were segmented using the DAPI staining and the coefficient of variation of NPM1 intensity per nucleus/cytoplasm was calculated using Definiens Developer XD software.

[2] = test system: OCI-AML3-ffLuc-GFP cells; assay: AML xenograft mouse model (OCI-AML3-ffLuc-GFP cells in NSG mice); assay type: in vivo; settings: ip administration for 3 weeks, NSG mice with 1 million OCI-AML3-GFP-Luc cells, versus vehicle, FIG. 5B
Protocol: An AML xenograft mouse model was used for the study of in vivo efficacy. Female 6-8 week-old NOD.Cg-Prkdcscid II2rgtm1WjI/SzJ (NSG) mice (Vivotecnia, Madrid, Spain) were inoculated intravenously by tail vein injection with OCI-AML3-ffLuc-GFP cells (1×10^6). The animal experiment was performed according to the guidelines of the Institutional Animal Care and Use Committees of the Comunidad de Madrid, Spain, under approved protocol (PROEX 023/17). Four days later, mice were randomized into three groups of 10 animals: the first group received intraperitoneal injections of vehicle (0.9% saline solution) five days a week; the second group received 25 mg/kg of compound Ic intraperitoneally five times a week for four weeks; the third group received intraperitoneal injections of 50 mg/kg of compound Ic five times weekly for three weeks. Mice were monitored for tumor burden, distribution and engraftment every week by IVIS whole-body bioluminescence imaging. Bioimaging of […] burden in vivo was performed by IVIS Imaging system (Caliper Life Science). Before performing, Luciferin (D-luciferin monosodium salt, Thermofisher) was prepared in PBS and 150 mg/kg of Luciferin was injected i.p.; after 10 min, luminescence signal can be detected. The signal data was analyzed by the Living Image 4.2 (Caliper Life Science) software.

[3] = test system: OCI-AML3 (NPM1 C+); assay: Viability assay (WST-1) in OCI-AML3 cell line; assay type: cell-based; settings: Homo sapiens, OCI-AML-3, viability percentage relative to vehicle, 24 h
Protocol: (§1) Two different acute myeloid leukemia cell lines, OCI-AML3 (NPM1 C+) and MOLM13 (NPM1 C−) were obtained from the DSMZ cell repository (Braunschweig, Germany). Cell lines were expanded and cryogenically frozen upon acquisition to establish stocks in liquid nitrogen until use. Cultured cells were maintained at 37° C. in a humidified incubator in an atmosphere of 5% CO2 and passaged every 2-3 days. RPMI media (Gibco/Life Technologies; Grand Island, NY) supplemented with 10% fetal bovine serum (FBS) (Hyclone) and 1% penicillin/streptomycin was used.
(§2) The sensitivity of the compounds on OCI-AML3 (NPM1 C+) and MOLM13 (NPM1 C−) cell viability was assessed as an in-vitro acute myeloid leukemia (AML) model. Briefly, cells were seeded at a density of 2×10^4 cells/100 μL/well in 96-well plates. Cell lines were treated for 24 h with the test compound diluted in DMSO at the concentration of 5 μM or vehicle (DMSO). Then, 10 μL of WST-1 solution ((2-(4-iodophenyl)-3-(4-nitrophenyl)-5-(2,4-disulfophenyl)-2H-tetrazolium monosodium salt, Merck) were added and the cells were incubated for 4 h at 37° C. The absorbance was measured at 450 nm using an Asys UVM 340 microplate reader (Biochrom Ltd., Cambridge, UK). The background absorbance of blank wells containing only medium was subtracted from each test well. The data were reported as viability percentage relative to vehicle, obtained from two or three independent experiments performed in triplicate (Table 1).

[4] = Pharmacokinetic study in mice; assay type: in vivo, mouse; design: in-vivo diffusion: dose or concentration left out as unconfirmed; settings: FIG. 5A
Protocol: Pharmacokinetic studies for compound Ic were performed. […] The area of the molecular peak allows to calculate the concentration of the compound present in mice serum at each time.

[5] = test system: AML primary cells NPM1 WT; assay: Viability assay in primary CD34+ cells from AML patients, NPM1 WT; assay type: cell-based; settings: Homo sapiens, FIG. 2
Protocol: as §2
(§3) Primary cells from AML bone marrow patients CD34+ were isolated by anti-CD34+ microbeads (Miltenyi Biotech) from bone marrow of healthy donors and AML patients. Briefly, bone marrow samples were collected from AML and healthy patient pelvic bone, and were subjected to Ficoll-Paque density gradient separation to isolate mononuclear cells. […]

[6] = test system: MOLM13 (NPM1 C−); assay: Viability assay (WST-1) in MOLM13 cell line; assay type: cell-based; settings: Homo sapiens, MOLM-13; dose-response curve, FIG. 1
[7] = test system: healthy donor bone marrow cells; assay: Viability assay in CD34+ healthy donor bone marrow cells; assay type: cell-based; settings: Homo sapiens, Bone marrow cell, FIG. 2, read-out: IC50 healthy donors
Protocol: as §2, §3

[8] = test system: MOLM13 (NPM1 C−); assay: Viability assay (WST-1) in MOLM13 cell line; assay type: cell-based; settings: Homo sapiens, MOLM-13, viability percentage relative to vehicle, 24 h
Protocol: as §1, §2

[9] = test system: AML primary cells; assay: Colony formation unit assay in primary CD34+ cells from AML patients; assay type: cell-based; settings: Homo sapiens, 336 h; methylcellulose culture, 14 days, FIG. 3; read-out: CFU-E: IC50 AML
Protocol: (§4) Sorted CD34^+ cells were plated in 24-well plates at a density of 3×10^4 cells per well in methylcellulose-based medium MethoCult GF H4434 (StemCell Technologies) containing stem cell factor (SCF), interleukin-3 (IL-3), erythropoietin (EPO) and granulocyte macrophage colony stimulating factor (GM-CSF). Test compound was added directly to the cells within the methylcellulose medium, and incubated at 37° C. in a humidified atmosphere in the presence of 5% CO2 for 14 days. Total cells from colonies formed were counted manually using an inverted microscope/phase contrast microscopy with trypan-blue. The data were presented as percentage of colonies or percentage of viable cells relative to DMSO, obtained from two or three independent experiments performed in duplicate.

[10] = test system: OCI-AML3 (NPM1 C+); assay: Viability assay (WST-1) in OCI-AML3 cell line; assay type: cell-based; settings: Homo sapiens, OCI-AML-3; dose-response curve, FIG. 1
[11] = test system: healthy donor bone marrow cells; assay: Colony formation unit assay in CD34+ healthy donor bone marrow cells; assay type: cell-based; settings: Homo sapiens, Bone marrow cell, 336 h; methylcellulose culture, 14 days, FIG. 3; read-out: CFU-E: IC50 healthy donors
Protocol: as §4

[12] = test system: AML primary cells NPM1 mut; assay: Viability assay in primary CD34+ cells from AML patients, NPM1 mut; assay type: cell-based; settings: Homo sapiens, FIG. 2
Protocol: as §2, §3

COc1ccc([C@H]2Cc3[nH]c4ccccc4c3[C@@H](CCNCC3CC3)[C@@H]2N)cc1 [Ic, (2R,3R,4R)-4-{2-[(Cyclopropylmethyl)amino]ethyl}-2-(4-methoxyphenyl)-2,3,4,9-tetrahydro-1H-carbazol-3-amine]
Effect on NPM1 / NPM1C+ (confocal microscopy) [1]: inhibition of the NPM1 cytoplasmic form (NPM1 C+) of the protein; also recorded: deplete NPM1 in OCI-AML3, especially NPM1C+ form | AML cell (tumour) infiltration [2]: Tumour infiltration decrease was observed | viability at 5 µM [3]: 40 ± 2% | levels in mouse peripheral blood ([4]; 25 mg/kg intraperitoneal, first 6 h post-injection): 0.2 to 0.6 µg/mL | in-vivo diffusion ([4]; plasma concentration 30 minutes to 6 hours after ip administration): correct in-vivo diffusion was observed | IC50 [5]: 5.03 µM | IC50 [6]: 41.8 µM | IC50 [7]: 7.89 µM | viability at 5 µM [8]: 55 ± 6% | IC50 [9]: 1.26 µM | IC50 [10]: 7.59 µM | IC50 [11]: 4.6 µM | IC50 [12]: 1.24 µM
